Measured values taken from the supplement of paper PMC10307832.

Tests used:
Test in all cases: relative viability (nuclei count vs DMSO), 5 days (fraction); higher = more cells survive
Ruboxistaurin = compound: CN(C)C[C@@H]1CCn2cc(c3ccccc32)C2=C(C(=O)NC2=O)c2cn(c3ccccc23)CCO1 [Ruboxistaurin]
How it was run: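 Viability is treated-well nuclei as a fraction of vehicle-well nuclei, reported as the median across plates. Before counting, lung cancer cell lines were kept overnight at 37 °C in 1536-well plates, pinned with five √10-spaced library-drug doses on vehicle-anchored plates, and left 5 days without medium change, then fixed, permeabilised and Hoechst-stained in one step, imaged at 4× and counted by MetaXpress. A plate passed only if control CV was below 25% and at least one doubling occurred.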

[1] = compound: CN(C)C[C@@H]1CCn2cc(c3ccccc32)C2=C(C(=O)NC2=O)c2cn(c3ccccc23)CCO1 [Ruboxistaurin] + CC(=O)Nc1cccc(-n2c(=O)n(C3CC3)c(=O)c3c(Nc4ccc(I)cc4F)n(C)c(=O)c(C)c32)c1 [Trametinib] (partner 0.02 µM)
How it was run: (§1)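 Five library-drug doses in √10 steps were combined with a fixed anchor-drug dose, or a single drug was given alone, by pin tool to lung cancer cell lines in 1536-well plates the day after seeding. Nuclei were stained and counted after 5 days. Relative viability is the nuclei count in treated wells over that in vehicle wells, taken as the median of duplicate plates.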

[2] = compound: CN(C)C[C@@H]1CCn2cc(c3ccccc32)C2=C(C(=O)NC2=O)c2cn(c3ccccc23)CCO1 [Ruboxistaurin] + CC(=O)c1c(C)c2cnc(Nc3ccc(N4CCNCC4)cn3)nc2n(C2CCCC2)c1=O [Palbociclib] (partner 0.5 µM)
How it was run: as §1

[3] = compound: CN(C)C[C@@H]1CCn2cc(c3ccccc32)C2=C(C(=O)NC2=O)c2cn(c3ccccc23)CCO1 [Ruboxistaurin] + CCNC(=O)c1noc(-c2cc(C(C)C)c(O)cc2O)c1-c1ccc(CN2CCOCC2)cc1 [Luminespib] (partner 0.01 µM)
How it was run: as §1

[4] = compound: CN(C)C[C@@H]1CCn2cc(c3ccccc32)C2=C(C(=O)NC2=O)c2cn(c3ccccc23)CCO1 [Ruboxistaurin] + COc1cc2c(Oc3ccc(NC(=O)C4(C(=O)Nc5ccc(F)cc5)CC4)cc3F)ccnc2cc1OCCCN1CCOCC1 [Foretinib] (partner 0.25 µM)
How it was run: as §1

Ruboxistaurin + OSI-027 = compound: CN(C)C[C@@H]1CCn2cc(c3ccccc32)C2=C(C(=O)NC2=O)c2cn(c3ccccc23)CCO1 [Ruboxistaurin] + COc1cccc2cc(-c3nc([C@H]4CC[C@H](C(=O)O)CC4)n4ncnc(N)c34)[nH]c12 [OSI-027] (partner 0.5 µM)
How it was run: as §1

[5] = compound: CN(C)C[C@@H]1CCn2cc(c3ccccc32)C2=C(C(=O)NC2=O)c2cn(c3ccccc23)CCO1 [Ruboxistaurin] + Cc1cc(Nc2cc(N3CCN(C)CC3)nc(Sc3ccc(NC(=O)C4CC4)cc3)n2)n[nH]1 [Tozasertib] (partner 0.1 µM)
How it was run: as §1

[6] = compound: CN(C)C[C@@H]1CCn2cc(c3ccccc32)C2=C(C(=O)NC2=O)c2cn(c3ccccc23)CCO1 [Ruboxistaurin] + Cc1nc(Nc2ncc(C(=O)Nc3c(C)cccc3Cl)s2)cc(N2CCN(CCO)CC2)n1 [Dasatinib] (partner 0.075 µM)
How it was run: as §1

[7] = compound: CN(C)C[C@@H]1CCn2cc(c3ccccc32)C2=C(C(=O)NC2=O)c2cn(c3ccccc23)CCO1 [Ruboxistaurin] + N=C(N)NC(=N)NCCc1ccccc1 [Phenformin] (partner 250 µM)
How it was run: as §1

Ruboxistaurin + AZD7762 = compound: CN(C)C[C@@H]1CCn2cc(c3ccccc32)C2=C(C(=O)NC2=O)c2cn(c3ccccc23)CCO1 [Ruboxistaurin] + NC(=O)Nc1cc(-c2cccc(F)c2)sc1C(=O)N[C@H]1CCCNC1 [AZD7762] (partner 0.2 µM)
How it was run: as §1

[8] = compound: CN(C)C[C@@H]1CCn2cc(c3ccccc32)C2=C(C(=O)NC2=O)c2cn(c3ccccc23)CCO1 [Ruboxistaurin] + Nc1nc2[nH]cc(CCc3ccc(C(=O)N[C@@H](CCC(=O)O)C(=O)O)cc3)c2c(=O)[nH]1 [Pemetrexed] (partner 0.2 µM)
How it was run: as §1

[9] = compound: CN(C)C[C@@H]1CCn2cc(c3ccccc32)C2=C(C(=O)NC2=O)c2cn(c3ccccc23)CCO1 [Ruboxistaurin] + Nc1ncn([C@H]2C[C@H](O)[C@@H](CO)O2)c(=O)n1 [Decitabine] (partner 2 µM)
How it was run: as §1

[10] = compound: CN(C)C[C@@H]1CCn2cc(c3ccccc32)C2=C(C(=O)NC2=O)c2cn(c3ccccc23)CCO1 [Ruboxistaurin] + O=C(CCCCCCC(=O)Nc1ccccc1)NO [Vorinostat] (partner 1 µM)
How it was run: as §1

Ruboxistaurin + Olaparib = compound: CN(C)C[C@@H]1CCn2cc(c3ccccc32)C2=C(C(=O)NC2=O)c2cn(c3ccccc23)CCO1 [Ruboxistaurin] + O=C(c1cc(Cc2n[nH]c(=O)c3ccccc23)ccc1F)N1CCN(C(=O)C2CC2)CC1 [Olaparib] (partner 8 µM)
How it was run: as §1

Cell Line: NCI-H2342
- relative viability (Ruboxistaurin; 0.08 µM): 1.02
- relative viability (Ruboxistaurin; 0.8 µM): 0.915
- relative viability (Ruboxistaurin; 2.53 µM): 1.06
- relative viability (Ruboxistaurin; 8 µM): 1.04
- relative viability ([1]; first compound 0.08 µM): 0.799
- relative viability ([1]; first compound 0.8 µM): 0.849
- relative viability ([1]; first compound 2.53 µM): 0.986
- relative viability ([1]; first compound 8 µM): 0.95
- relative viability ([2]; first compound 0.08 µM): 0.456
- relative viability ([2]; first compound 0.8 µM): 0.53
- relative viability ([2]; first compound 2.53 µM): 0.512
- relative viability ([2]; first compound 8 µM): 0.518
- relative viability ([3]; first compound 0.08 µM): 0.762
- relative viability ([3]; first compound 0.8 µM): 0.732
- relative viability ([3]; first compound 2.53 µM): 0.892
- relative viability ([3]; first compound 8 µM): 0.738
- relative viability ([4]; first compound 0.08 µM): 1.2
- relative viability ([4]; first compound 0.8 µM): 0.83
- relative viability ([4]; first compound 2.53 µM): 1.06
- relative viability ([4]; first compound 8 µM): 1.18
- relative viability (Ruboxistaurin + OSI-027; first compound 0.08 µM): 0.678
- relative viability (Ruboxistaurin + OSI-027; first compound 0.8 µM): 0.672
- relative viability (Ruboxistaurin + OSI-027; first compound 2.53 µM): 0.608
- relative viability (Ruboxistaurin + OSI-027; first compound 8 µM): 0.698
- relative viability ([5]; first compound 0.08 µM): 0.578
- relative viability ([5]; first compound 0.8 µM): 0.56
- relative viability ([5]; first compound 2.53 µM): 0.461
- relative viability ([5]; first compound 8 µM): 0.497
- relative viability ([6]; first compound 0.08 µM): 0.364
- relative viability ([6]; first compound 0.8 µM): 0.312
- relative viability ([6]; first compound 2.53 µM): 0.303
- relative viability ([6]; first compound 8 µM): 0.277
- relative viability ([7]; first compound 0.08 µM): 0.626
- relative viability ([7]; first compound 0.8 µM): 0.585
- relative viability ([7]; first compound 2.53 µM): 0.616
- relative viability ([7]; first compound 8 µM): 0.597
- relative viability (Ruboxistaurin + AZD7762; first compound 0.08 µM): 0.535
- relative viability (Ruboxistaurin + AZD7762; first compound 0.8 µM): 0.509
- relative viability (Ruboxistaurin + AZD7762; first compound 2.53 µM): 0.529
- relative viability (Ruboxistaurin + AZD7762; first compound 8 µM): 0.582
- relative viability ([8]; first compound 0.08 µM): 0.793
- relative viability ([8]; first compound 0.8 µM): 0.825
- relative viability ([8]; first compound 2.53 µM): 0.874
- relative viability ([8]; first compound 8 µM): 0.817
- relative viability ([9]; first compound 0.08 µM): 0.689
- relative viability ([9]; first compound 0.8 µM): 0.737
- relative viability ([9]; first compound 2.53 µM): 0.757
- relative viability ([9]; first compound 8 µM): 0.819
- relative viability ([10]; first compound 0.08 µM): 0.888
- relative viability ([10]; first compound 0.8 µM): 0.69
- relative viability ([10]; first compound 2.53 µM): 0.768
- relative viability ([10]; first compound 8 µM): 0.93
- relative viability (Ruboxistaurin + Olaparib; first compound 0.08 µM): 0.414
- relative viability (Ruboxistaurin + Olaparib; first compound 0.8 µM): 0.483
- relative viability (Ruboxistaurin + Olaparib; first compound 2.53 µM): 0.511
- relative viability (Ruboxistaurin + Olaparib; first compound 8 µM): 0.436
